Measured values taken from patent publication US20060154903A1, “Betulinol derivatives as anti-cancer agents” (priority 2004, published 2006).
Read-outs that look alike come from different tables or passages of the source.

What was measured:
[1] = system: carcinoma cell line CO-115 of the large intestine; settings: cytotoxic activity; cited from earlier work
[2] = system: human prostate cancer LNCaP cell line; assay: MTT cytotoxicity assay, LNCaP; assay type: cell-based; settings: LNCaP; for inhibition at 100 µM / inhibition at 10 µM / inhibition at 1 µM: Homo sapiens, read-out: Growth Inhibition %; for inhibition at 100 µM: 1 × 10^−4 M; for inhibition at 10 µM: 1 × 10^−5 M; for inhibition at 1 µM: 1 × 10^−6 M
Method: The human prostate cancer LNCaP, PC-3, and DU-145 cell lines, as well as human fibroblast cell line, were obtained from the American Type Culture Collection (“ATCC”) and maintained in RPMI-1640, F-12k, and MEM mediums, respectively, supplemented with 10% FBS. Cell lines were maintained at 37° C. under a humidified atmosphere and 5% CO2 for testing of the cytotoxicity of betulinol derivatives. The cytotoxicity assay was performed using MTT assay according to the instructions of ATCC protocol. Cells 1×10^5 in 0.1 ml/well were plated in 96-well culture plates (Costar) and incubated with a different dilution of betulinol derivatives for 24, 48, and 72 hours. Ten μl of 3-[4,5-dimethylthiazol-2-yl]-2,5 diphenyl tetrazolium bromide was added into each well at the end of each incubation period. The reaction product, formazan, was dissolved in the detergent, and the absorbance was read at 540 nm (Ref).
(§1) However, these compounds were not tested on prostate cancer LNCaP cell line by NCI. […] The anti-tumor activity of the compounds was determined at three doses and the total growth inhibition kill effect as pertinent of the control at 24, 48, and 72 hours as presented in Table 11.

[3] = Tolerability of solubilized drug in mice with prostate cancer cell xenografts; assay type: in vivo; settings: final concentration of 22% ethanol and 2×10^−3 mol per liter of betulonic acid
Method: In the present experiment, twelve male athymic mice were utilized. Seven to ten million cells, from a prostate cancer LNCaP cell line culture, were suspended homogenously in a Matrigel basement membrane matrix and transplanted in mice as xenografts. Tumors were visible within a week. […] Control groups of mice were also injected daily with a solution containing 22% ethanol in phosphate buffer solution (PBS) containing 4% albumin for a duration of 24 days. […] The volume of the tumors was determined daily using a caliper in order to observe any change in the tumor volume (FIG. 12), calculated according to the formula π/6(1×w×h). Mice were sacrificed by CO2 asphyxiation on day 24 after the first injection (FIGS. 13A-D). Total percent increase in tumor volume in drug treated and control groups was assessed (FIG. 14).

[4] = Solubility in DMSO diluted with culture medium (GC)
Method: The residue was dissolved in chloroform analyzed on GC.
Ethyl ether was then evaporated. […] Concentration of drug in the above solutions was analyzed by GC and determined from the standard solubility curve.

RXF 393 = assay: In vitro cytotoxicity, Renal (2), RXF 393; assay type: cell-based, human
NCI-H322M = assay: In vitro cytotoxicity, Lung (2), NCI-H322M; assay type: cell-based, human
Method: as §1

CAKI-1 = assay: In vitro cytotoxicity, Renal (2), CAKI-1; assay type: cell-based, human
Method: as §1

NCI-H460 = assay: In vitro cytotoxicity, Lung (2), NCI-H460; assay type: cell-based, human
SF-268 = assay: In vitro cytotoxicity, CNS (2), SF-268; assay type: cell-based, human
MCF7 = assay: In vitro cytotoxicity, Breast (2), MCF7; assay type: cell-based, human
DU-145 = assay: In vitro cytotoxicity, Prostate (2), DU-145; assay type: cell-based, human
TK-10 = assay: In vitro cytotoxicity, Renal (2), TK-10; assay type: cell-based, human
Method: as §1

MALME-3M = assay: In vitro cytotoxicity, Melanoma (2), MALME-3M; assay type: cell-based, human
OVCAR-5 = assay: In vitro cytotoxicity, Ovarian (2), OVCAR-5; assay type: cell-based, human
Method: as §1

HOP-92 = assay: In vitro cytotoxicity, Lung (2), HOP-92; assay type: cell-based, human
Method: as §1

U251 = assay: In vitro cytotoxicity, CNS (2), U251; assay type: cell-based, human
OVACR-3 = assay: In vitro cytotoxicity, Ovarian (2), OVACR-3; assay type: cell-based, human
Method: as §1

PC-3 = assay: In vitro cytotoxicity, Prostate (2), PC-3; assay type: cell-based, human
T-47d = assay: In vitro cytotoxicity, Breast (2), T-47d; assay type: cell-based, human
Bladder cancer cells = settings: 1 × 10^−4 M; Bladder (1), cell line not given
[5] = system: different human tumor cell lines; assay: In vitro cell toxicity test by NCI, tumor cell line panel; assay type: cell-based; settings: tested by NCI; comparison among compounds 2, 3, 4 and 5
184B5/HER = assay: In vitro cytotoxicity, Breast (1), 184B5/HER; assay type: cell-based; settings: 1 × 10^−4 M

In the case of `C=C(C)[C@@H]1CC[C@]2(C(=O)O)CC[C@]3(C)[C@H](CC[C@@H]4[C@@]5(C)CC[C@H](O)C(C)(C)[C@@H]5CC[C@]43C)[C@@H]12` [Compound 2, Betulinic Acid], the “LD 50” value [1] is listed as 0.375 mg/mL, the “Growth Inhibition %” value ([2]; 24 hours, 2.5 × 10^−5 (M)) is listed as 41.0% and the “Growth Inhibition %” value ([2]; 24 hours, 2.5 × 10^−6 (M)) is listed as 24.6%. For the same compound, the “Growth Inhibition %” value ([2]; 24 hours, 2.5 × 10^−7 (M)) was 11.72%, the “Growth Inhibition %” value ([2]; 48 hours, 2.5 × 10^−5 (M)) was 73.3% and the “Growth Inhibition %” value ([2]; 48 hours, 2.5 × 10^−6 (M)) was 69.4%. The “Growth Inhibition %” value ([2]; 48 hours, 2.5 × 10^−7 (M)) was 62.8%.

In the case of `C=C(C)C1CCC2(C(=O)NCCCCC(NC(=O)OC(C)(C)C)C(=O)O)CC[C@]3(C)[C@H](CC[C@@H]4[C@@]5(C)CCC(=O)C(C)(C)[C@@H]5CC[C@]43C)C12` (stereo partly shown) [Monomer-Boc], the tolerability in mice [3] is reported as “well tolerated”, the “Concentration of drug (mg/mL)” value [4] is reported as 0.7 mg/mL and the “Concentration of drug (mol/L)” value [4] is reported as 0.001 mol/L.

In the case of `C=C(C)[C@@H]1CC[C@]2(CO)CC[C@]3(C)[C@H](CC[C@@H]4[C@@]5(C)CC[C@H](OC(C)=O)C(C)(C)[C@@H]5CC[C@]43C)[C@@H]12` [Compound 8, 3-Acetoxy Betulin], the “Growth Inhibition %” value ([2]; 24 hours, 2.5 × 10^−5 (M)) is reported as 12.4%, the “Growth Inhibition %” value ([2]; 24 hours, 2.5 × 10^−6 (M)) is reported as 10.4% and the “Growth Inhibition %” value ([2]; 24 hours, 2.5 × 10^−7 (M)) is reported as 0%. The “Growth Inhibition %” value ([2]; 48 hours, 2.5 × 10^−5 (M)) was 28.3%, the “Growth Inhibition %” value ([2]; 48 hours, 2.5 × 10^−6 (M)) was 44.7% and the “Growth Inhibition %” value ([2]; 48 hours, 2.5 × 10^−7 (M)) was 17.4%.

For `C=C(C)[C@@H]1CC[C@]2(COC(C)=O)CC[C@]3(C)[C@H](CC[C@@H]4[C@@]5(C)CC[C@H](OC(C)=O)C(C)(C)[C@@H]5CC[C@]43C)[C@@H]12` [Compound 6, Betulin Diacetate], the “Percent Killed” value (RXF 393; 1 × 10^−4 M) was 100%, the “Percent Killed” value (RXF 393; 1 × 10^−5 M) was 100% and the “Percent Killed” value (RXF 393; 1 × 10^−6 M) was 100%. For the same compound, the “Percent Killed” value (RXF 393; 1 × 10^−7 M) was 97%, the “Percent Killed” value (RXF 393; 1 × 10^−8 M) was 15% and the “Percent Killed” value (NCI-H322M; 1 × 10^−4 M) was 100%. For the same compound, the “Percent Killed” value (NCI-H322M; 1 × 10^−5 M) was 100%, the “Percent Killed” value (NCI-H322M; 1 × 10^−6 M) was 100% and the “Percent Killed” value (CAKI-1; 1 × 10^−4 M) was 100%. The “Percent Killed” value (CAKI-1; 1 × 10^−5 M) was 100%, the “Percent Killed” value (CAKI-1; 1 × 10^−6 M) was 100% and the “Percent Killed” value (NCI-H460; 1 × 10^−4 M) was 100%. For the same compound, the “Percent Killed” value (NCI-H460; 1 × 10^−5 M) was 100%, the “Percent Killed” value (NCI-H460; 1 × 10^−6 M) was 100% and the “Percent Killed” value (NCI-H460; 1 × 10^−7 M) was 25%. For the same compound, the “Percent Killed” value (SF-268; 1 × 10^−4 M) was 100%, the “Percent Killed” value (SF-268; 1 × 10^−5 M) was 100% and the “Percent Killed” value (SF-268; 1 × 10^−6 M) was 100%. For the same compound, the “Percent Killed” value (SF-268; 1 × 10^−7 M) was 75%, the “Percent Killed” value (SF-268; 1 × 10^−8 M) was 15% and the “Percent Killed” value (MCF7; 1 × 10^−4 M) was 100%. For the same compound, the “Percent Killed” value (MCF7; 1 × 10^−5 M) was 100%, the “Percent Killed” value (MCF7; 1 × 10^−6 M) was 100% and the “Percent Killed” value (MCF7; 1 × 10^−7 M) was 100%. For the same compound, the “Percent Killed” value (DU-145; 1 × 10^−4 M) was 100%, the “Percent Killed” value (DU-145; 1 × 10^−5 M) was 100% and the “Percent Killed” value (DU-145; 1 × 10^−6 M) was 100%. The “Percent Killed” value (DU-145; 1 × 10^−7 M) was 100%, the “Percent Killed” value (DU-145; 1 × 10^−8 M) was 27% and the “Percent Killed” value (TK-10; 1 × 10^−4 M) was 100%. For the same compound, the “Percent Killed” value (TK-10; 1 × 10^−5 M) was 100%, the “Percent Killed” value (TK-10; 1 × 10^−6 M) was 49% and the “Percent Killed” value (MALME-3M; 1 × 10^−4 M) was 100%. For the same compound, the “Percent Killed” value (MALME-3M; 1 × 10^−5 M) was 100%, the “Percent Killed” value (MALME-3M; 1 × 10^−6 M) was 100% and the “Percent Killed” value (MALME-3M; 1 × 10^−7 M) was 100%. For the same compound, the “Percent Killed” value (MALME-3M; 1 × 10^−8 M) was 98%, the “Percent Killed” value (OVCAR-5; 1 × 10^−4 M) was 100% and the “Percent Killed” value (OVCAR-5; 1 × 10^−5 M) was 100%. For the same compound, the “Percent Killed” value (OVCAR-5; 1 × 10^−6 M) was 100%, the “Percent Killed” value (HOP-92; 1 × 10^−4 M) was 100% and the “Percent Killed” value (HOP-92; 1 × 10^−5 M) was 100%. The “Percent Killed” value (HOP-92; 1 × 10^−6 M) was 100%, the “Percent Killed” value (U251; 1 × 10^−4 M) was 100% and the “Percent Killed” value (U251; 1 × 10^−5 M) was 100%. For the same compound, the “Percent Killed” value (U251; 1 × 10^−6 M) was 100%, the “Percent Killed” value (U251; 1 × 10^−7 M) was 100% and the “Percent Killed” value (OVACR-3; 1 × 10^−4 M) was 100%. For the same compound, the “Percent Killed” value (OVACR-3; 1 × 10^−5 M) was 100%, the “Percent Killed” value (OVACR-3; 1 × 10^−6 M) was 96% and the “Percent Killed” value (PC-3; 1 × 10^−4 M) was 25%. For the same compound, the “Percent Killed” value (PC-3; 1 × 10^−5 M) was 15%, the “Percent Killed” value (T-47d; 1 × 10^−4 M) was 100% and the “Percent Killed” value (T-47d; 1 × 10^−5 M) was 100%. The “Percent Killed” value (T-47d; 1 × 10^−6 M) was 100% and the “Percent Killed” value (T-47d; 1 × 10^−7 M) was 23%.

In the case of `C=C(C)C1CCC2(C(=O)NCCCCC(NC(=O)OC(C)(C)C)C(=O)OC)CC[C@]3(C)[C@H](CC[C@@H]4[C@@]5(C)CCC(=O)C(C)(C)[C@@H]5CC[C@]43C)C12` (stereo partly shown) [Monomer], the inhibition at 100 µM ([2]; 24 h, 24 hours) is reported as 76.5 ± 22.6%, the inhibition at 10 µM ([2]; 24 h, 24 hours) is reported as 19 ± 14.4% and the inhibition at 1 µM ([2]; 24 h, 24 hours) is reported as 5.5 ± 7.32%. The inhibition at 100 µM ([2]; 48 h, 48 hours) was about 80%, the inhibition at 10 µM ([2]; 48 h, 48 hours) was 36.8% and the inhibition at 1 µM ([2]; 48 h, 48 hours) was 15 ± 11.2%. It also gave an inhibition at 100 µM ([2]; 72 h, 72 hours) of 79.2 ± 16.5%, an inhibition at 10 µM ([2]; 72 h, 72 hours) of 40.5 ± 33.6% and an inhibition at 1 µM ([2]; 72 h, 72 hours) of 17.2 ± 32.5%.

In the case of `C=C(C)C1CCC2(C=O)CCC3(C)C(CCC4C5(C)CCC(=O)C(C)(C)C5CCC43C)C12` (stereo not shown) [Compound 5, Betulon Aldehyde], the “Percent Killed” value (NCI-H460; 1 × 10^−4 M) is reported as 89%, the “Percent Killed” value (SF-268; 1 × 10^−4 M) is reported as 27% and the “Percent Killed” value (MCF7; 1 × 10^−4 M) is reported as 68%. The “Percent Killed” value (Bladder cancer cells) was 29% and the “cell growth inhibitory properties against different human tumor cell lines” value [5] was “most effective inhibition of cell growth without selective activity”.

For `C=C(C)[C@@H]1CC[C@]2(C=O)CC[C@]3(C)[C@H](CC[C@@H]4[C@@]5(C)CC[C@H](O)C(C)(C)[C@@H]5CC[C@]43C)[C@@H]12` [Compound 3, Betulin Aldehyde], the “Growth Inhibition %” value ([2]; 24 hours, 2.5 × 10^−5 (M)) was 29.5%, the “Growth Inhibition %” value ([2]; 24 hours, 2.5 × 10^−6 (M)) was 11.0% and the “Growth Inhibition %” value ([2]; 24 hours, 2.5 × 10^−7 (M)) was 6.34%. The “Growth Inhibition %” value ([2]; 48 hours, 2.5 × 10^−5 (M)) was 72.3%, the “Growth Inhibition %” value ([2]; 48 hours, 2.5 × 10^−6 (M)) was 40.9% and the “Growth Inhibition %” value ([2]; 48 hours, 2.5 × 10^−7 (M)) was 27.6%.

In the case of `C=C(C)C1CCC2(COC)CCC3(C)C(CCC4C5(C)CCC(OC)C(C)(C)C5CCC43C)C12` (stereo not shown) [Compound 7, Betulin Dimethyl ether (Cornelon)], the “Percent Killed” value (NCI-H460; 1 × 10^−4 M) is reported as 80%, the “Percent Killed” value (SF-268; 1 × 10^−4 M) is reported as 100% and the “Percent Killed” value (184B5/HER) is reported as “Toxic”. For the same compound, the “Percent Killed” value (MCF7; 1 × 10^−4 M) was 97% and the “Percent Killed” value (Bladder cancer cells) was 30%.
